# Assay results published in ChEMBL document CHEMBL1909046, “DrugMatrix in vitro pharmacology data”.
# Key:
# [1] = biological target: 5-hydroxytryptamine receptor 6 (Homo sapiens, UniProt P50406); type: cell membranes, HeLa, Membrane; further: in other assays of this panel Not Active means under 50% inhibition at 10 µM
# [2] = biological target: C-C chemokine receptor type 2 (Homo sapiens, UniProt P41597); type: cell membranes, Membrane; details: cho-k1; further: in other assays of this panel Not Active means under 50% inhibition at 10 µM
# [3] = biological target: C-C chemokine receptor type 5 (Homo sapiens, UniProt P51681); type: cell membranes, Membrane; details: hek293; further: in other assays of this panel Not Active means under 50% inhibition at 10 µM
# [4] = DRUGMATRIX: Glutamate, NMDA, Phencyclidine radioligand binding (ligand: [3H] TCP); type: cell membranes, Rattus norvegicus, Wistar, Cerebral cortex, Membrane; details: Not Active = under 50% inhibition at 10 µM
# [5] = DRUGMATRIX: Imidazoline I2, Central radioligand binding (ligand: [3H] Idazoxan); type: cell membranes, Rattus norvegicus, Wistar, Cerebral cortex, Membrane; details: Not Active = under 50% inhibition at 10 µM
# [6] = biological target: Nitric oxide synthase 1 (Rattus norvegicus, UniProt P29476); type: tissue-based, Cerebellum; further: in other assays of this panel Not Active means under 50% inhibition at 10 µM
# [7] = biological target: T1, Estrogen receptor (Homo sapiens, UniProt P03372); details: sf9; further: in other assays of this panel Not Active means under 50% inhibition at 10 µM
# T1 sequence (P03372 whole entry): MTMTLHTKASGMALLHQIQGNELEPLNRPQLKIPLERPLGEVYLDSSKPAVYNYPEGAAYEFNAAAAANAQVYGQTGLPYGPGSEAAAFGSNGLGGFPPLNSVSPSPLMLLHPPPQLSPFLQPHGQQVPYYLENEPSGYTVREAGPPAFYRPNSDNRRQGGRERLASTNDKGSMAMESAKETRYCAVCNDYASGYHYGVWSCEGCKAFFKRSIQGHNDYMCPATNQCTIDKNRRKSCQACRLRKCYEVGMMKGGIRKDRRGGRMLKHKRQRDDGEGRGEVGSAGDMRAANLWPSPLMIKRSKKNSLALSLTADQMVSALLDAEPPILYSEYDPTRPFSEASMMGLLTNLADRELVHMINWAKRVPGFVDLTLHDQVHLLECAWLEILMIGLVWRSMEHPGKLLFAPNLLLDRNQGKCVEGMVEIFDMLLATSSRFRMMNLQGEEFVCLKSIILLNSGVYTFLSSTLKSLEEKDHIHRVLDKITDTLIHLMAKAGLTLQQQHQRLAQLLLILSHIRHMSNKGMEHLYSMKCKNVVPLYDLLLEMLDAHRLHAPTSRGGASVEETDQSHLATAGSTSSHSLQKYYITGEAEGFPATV
# 5-hydroxytryptamine receptor 6, sequence (P50406 whole entry): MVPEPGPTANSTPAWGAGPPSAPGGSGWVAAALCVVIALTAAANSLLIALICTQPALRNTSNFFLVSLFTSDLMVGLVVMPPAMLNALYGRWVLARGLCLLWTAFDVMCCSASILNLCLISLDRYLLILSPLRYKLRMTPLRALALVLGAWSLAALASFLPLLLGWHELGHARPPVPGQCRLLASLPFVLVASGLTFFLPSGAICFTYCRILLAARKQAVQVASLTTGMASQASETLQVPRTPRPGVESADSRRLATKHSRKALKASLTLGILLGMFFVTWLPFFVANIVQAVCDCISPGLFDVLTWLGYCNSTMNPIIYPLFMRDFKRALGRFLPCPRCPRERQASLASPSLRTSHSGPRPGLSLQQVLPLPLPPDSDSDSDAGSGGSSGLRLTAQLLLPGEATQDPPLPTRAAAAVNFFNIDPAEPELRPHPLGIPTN
# C-C chemokine receptor type 2, sequence (P41597 whole entry): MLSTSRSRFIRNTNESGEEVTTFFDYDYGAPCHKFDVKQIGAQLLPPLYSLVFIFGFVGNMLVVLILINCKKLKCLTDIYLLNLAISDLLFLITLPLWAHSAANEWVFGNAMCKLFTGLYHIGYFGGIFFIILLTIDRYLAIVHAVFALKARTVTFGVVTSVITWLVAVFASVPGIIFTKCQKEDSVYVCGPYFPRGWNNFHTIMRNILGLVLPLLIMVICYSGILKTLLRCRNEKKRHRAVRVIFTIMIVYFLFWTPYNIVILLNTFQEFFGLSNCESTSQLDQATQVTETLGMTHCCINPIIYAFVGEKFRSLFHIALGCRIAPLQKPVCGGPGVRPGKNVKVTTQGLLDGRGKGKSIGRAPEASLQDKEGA
# Nitric oxide synthase 1, sequence (P29476 whole entry): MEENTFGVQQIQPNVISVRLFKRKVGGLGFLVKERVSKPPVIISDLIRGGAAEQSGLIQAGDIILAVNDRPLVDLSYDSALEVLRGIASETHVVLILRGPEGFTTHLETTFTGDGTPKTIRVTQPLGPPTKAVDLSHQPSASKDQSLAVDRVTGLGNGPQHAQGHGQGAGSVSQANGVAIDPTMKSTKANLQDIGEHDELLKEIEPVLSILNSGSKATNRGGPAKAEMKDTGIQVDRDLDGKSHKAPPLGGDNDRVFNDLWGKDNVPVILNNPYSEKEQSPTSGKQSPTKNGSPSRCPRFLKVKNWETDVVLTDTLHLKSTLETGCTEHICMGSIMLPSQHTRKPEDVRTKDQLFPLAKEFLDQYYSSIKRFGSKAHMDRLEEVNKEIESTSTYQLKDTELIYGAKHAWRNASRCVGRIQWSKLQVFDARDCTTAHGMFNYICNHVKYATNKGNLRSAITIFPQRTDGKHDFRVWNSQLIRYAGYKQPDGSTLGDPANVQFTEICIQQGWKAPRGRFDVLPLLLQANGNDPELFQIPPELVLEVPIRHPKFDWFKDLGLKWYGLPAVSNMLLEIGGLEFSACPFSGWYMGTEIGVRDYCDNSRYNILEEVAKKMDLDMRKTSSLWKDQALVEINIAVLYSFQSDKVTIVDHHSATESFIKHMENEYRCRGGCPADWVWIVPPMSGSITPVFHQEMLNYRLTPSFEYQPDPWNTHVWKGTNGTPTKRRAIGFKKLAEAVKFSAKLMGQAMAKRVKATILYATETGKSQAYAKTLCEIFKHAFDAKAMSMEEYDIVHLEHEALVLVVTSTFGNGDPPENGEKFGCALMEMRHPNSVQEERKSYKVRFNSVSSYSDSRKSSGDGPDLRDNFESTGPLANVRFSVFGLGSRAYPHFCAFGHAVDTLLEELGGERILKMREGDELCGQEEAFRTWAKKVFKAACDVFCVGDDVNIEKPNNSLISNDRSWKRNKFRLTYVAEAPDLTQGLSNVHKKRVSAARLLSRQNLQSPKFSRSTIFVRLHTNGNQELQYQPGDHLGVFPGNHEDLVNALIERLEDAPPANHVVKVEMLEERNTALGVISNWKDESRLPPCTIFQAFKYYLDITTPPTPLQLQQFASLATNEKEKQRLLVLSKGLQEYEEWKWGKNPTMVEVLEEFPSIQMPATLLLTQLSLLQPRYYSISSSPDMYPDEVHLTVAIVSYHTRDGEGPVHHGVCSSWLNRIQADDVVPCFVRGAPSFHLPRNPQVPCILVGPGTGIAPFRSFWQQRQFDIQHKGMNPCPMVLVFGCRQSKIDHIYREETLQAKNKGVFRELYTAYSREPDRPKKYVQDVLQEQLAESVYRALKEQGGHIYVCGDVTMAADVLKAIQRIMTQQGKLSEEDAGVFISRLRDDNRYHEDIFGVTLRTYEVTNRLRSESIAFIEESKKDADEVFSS
# C-C chemokine receptor type 5, sequence (P51681 whole entry): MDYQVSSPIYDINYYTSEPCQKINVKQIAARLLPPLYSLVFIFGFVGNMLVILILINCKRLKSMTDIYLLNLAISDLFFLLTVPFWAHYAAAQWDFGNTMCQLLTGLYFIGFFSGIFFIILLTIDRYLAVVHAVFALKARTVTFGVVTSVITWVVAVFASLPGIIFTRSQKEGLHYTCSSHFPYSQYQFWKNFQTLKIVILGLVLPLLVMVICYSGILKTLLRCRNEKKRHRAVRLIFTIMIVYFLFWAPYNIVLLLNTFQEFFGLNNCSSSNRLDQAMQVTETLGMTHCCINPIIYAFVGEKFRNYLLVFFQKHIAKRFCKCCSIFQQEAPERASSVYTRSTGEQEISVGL
SMILES,IC50 ([1]; hela),IC50 [2],IC50 [3],IC50 [4],Ki [4],IC50 [5],Ki [5],IC50 [6],IC50 [7],IC50 ([1]; read-out: IC50) [µM],IC50 ([5]; read-out: IC50) [µM],Ki ([5]; read-out: Ki) [µM],Ki ([1]; read-out: Ki) [µM]
CC(O)COC[C@H]1O[C@@H]2O[C@H]3[C@H](O)[C@@H](O)[C@@H](O[C@H]4[C@H](O)[C@@H](O)[C@@H](O[C@H]5[C@H](O)[C@@H](O)[C@@H](O[C@H]6[C@H](O)[C@@H](O)[C@@H](O[C@H]7[C@H](O)[C@@H](O)[C@@H](O[C@H]8[C@H](O)[C@@H](O)[C@@H](O[C@H]1[C@H](O)[C@H]2O)O[C@@H]8COCC(C)O)O[C@@H]7COCC(C)O)O[C@@H]6COCC(C)O)O[C@@H]5COCC(C)O)O[C@@H]4COCC(C)O)O[C@@H]3COCC(C)O (stereo partly drawn) [2-HYDROXYPROPYL-BETA-CYCLODEXTRIN],Not Active,Not Active,Not Active,Not Active,Not Active,Not Active,Not Active,Not Active,Not Active,–,–,–,–
NC(=O)c1cccc(N)c1 [3-AMINOBENZAMIDE],Not Active,Not Active,Not Active,Not Active,Not Active,Not Active,Not Active,Not Active,Not Active,–,–,–,–
CC[C@H]1[C@@H]2C[C@H]3[C@@H]4N(C)c5ccccc5[C@]45C[C@@H]([C@@H]2[C@H]5O)N3[C@@H]1O [AJMALINE],Not Active,Not Active,Not Active,Not Active,Not Active,Not Active,Not Active,Not Active,Not Active,–,–,–,–
NCCCNCCSP(=O)(O)O [AMIFOSTINE],Not Active,Not Active,Not Active,Not Active,Not Active,Not Active,Not Active,Not Active,Not Active,–,–,–,–
CN(C)CCC=C1c2ccccc2CCc2ccccc21 [AMITRIPTYLINE],–,Not Active,Not Active,Not Active,Not Active,–,–,Not Active,Not Active,0.14,1.69,1.12,–
CC(=O)Oc1ccccc1C(=O)O [ASPIRIN],Not Active,Not Active,Not Active,Not Active,Not Active,Not Active,Not Active,Not Active,Not Active,–,–,–,–
CC(=O)OC[C@H]1O[C@@H](n2ncc(=O)[nH]c2=O)[C@H](OC(C)=O)[C@@H]1OC(C)=O [AZARIBINE],Not Active,Not Active,Not Active,Not Active,Not Active,Not Active,Not Active,Not Active,Not Active,–,–,–,–
O=C(O)CCNC(=O)c1ccc(/N=N/c2ccc(O)c(C(=O)O)c2)cc1 [BALSALAZIDE],Not Active,Not Active,Not Active,Not Active,Not Active,Not Active,Not Active,Not Active,Not Active,–,–,–,–
ClC(Cl)(Cl)Cl [CARBON TETRACHLORIDE],Not Active,Not Active,Not Active,Not Active,Not Active,Not Active,Not Active,Not Active,Not Active,–,–,–,–
CNC1=Nc2ccc(Cl)cc2C(c2ccccc2)=[N+]([O-])C1 [CHLORDIAZEPOXIDE],Not Active,Not Active,Not Active,Not Active,Not Active,Not Active,Not Active,Not Active,Not Active,–,–,–,–
CCCNC(=O)NS(=O)(=O)c1ccc(Cl)cc1 [CHLORPROPAMIDE],Not Active,Not Active,Not Active,Not Active,Not Active,Not Active,Not Active,Not Active,Not Active,–,–,–,–
O=C(O)CC(O)(CC(=O)O)C(=O)O [CITRIC ACID],Not Active,Not Active,Not Active,Not Active,Not Active,Not Active,Not Active,Not Active,Not Active,–,–,–,–
CC(C)NCC(O)c1ccccc1Cl (stereo not given) [CLORPRENALINE],Not Active,Not Active,Not Active,Not Active,Not Active,Not Active,Not Active,Not Active,Not Active,–,–,–,–
CN1CCN(C(c2ccccc2)c2ccccc2)CC1 [CYCLIZINE],Not Active,Not Active,Not Active,Not Active,Not Active,–,–,Not Active,Not Active,–,3.13,2.09,–
CN1C[C@@H]2C[C@H]1CN2c1cc2c(cc1F)c(=O)c(C(=O)O)cn2C1CC1 [DANOFLOXACIN],Not Active,Not Active,Not Active,Not Active,Not Active,Not Active,Not Active,Not Active,Not Active,–,–,–,–
O=C(O)c1cc(-c2ccc(F)cc2F)ccc1O [DIFLUNISAL],Not Active,Not Active,Not Active,Not Active,Not Active,Not Active,Not Active,Not Active,Not Active,–,–,–,–
CC1=NN(c2ccccc2)C(=O)C1 [EDARAVONE],Not Active,Not Active,Not Active,Not Active,Not Active,Not Active,Not Active,Not Active,Not Active,–,–,–,–
CC(C)C[C@H]1C(=O)N2CCC[C@H]2[C@]2(O)O[C@](NC(=O)[C@@H]3C=C4c5cccc6[nH]cc(c56)C[C@H]4N(C)C3)(C(C)C)C(=O)N12 [ERGOCRYPTINE],–,Not Active,Not Active,Not Active,Not Active,–,–,Not Active,Not Active,0.016,0.00328,0.00219,0.00756
CC(C)(C(=O)O)c1ccc(C(O)CCCN2CCC(C(O)(c3ccccc3)c3ccccc3)CC2)cc1 (stereo not given) [FEXOFENADINE],Not Active,Not Active,Not Active,Not Active,Not Active,Not Active,Not Active,Not Active,Not Active,–,–,–,–
CN1CCN(c2c(F)cc3c(=O)c(C(=O)O)cn(CCF)c3c2F)CC1 [FLEROXACIN],Not Active,Not Active,Not Active,Not Active,Not Active,Not Active,Not Active,Not Active,Not Active,–,–,–,–
O=c1[nH]c(=O)n([C@H]2C[C@H](O)[C@@H](CO)O2)cc1F [FLOXURIDINE],Not Active,Not Active,Not Active,Not Active,Not Active,Not Active,Not Active,Not Active,Not Active,–,–,–,–
COC(=O)Nc1nc2cc(C(=O)c3ccc(F)cc3)ccc2[nH]1 [FLUBENDAZOLE],Not Active,Not Active,Not Active,Not Active,Not Active,Not Active,Not Active,Not Active,Not Active,–,–,–,–
CC(=O)OCC(=O)[C@@]1(O)CC[C@H]2[C@@H]3CCC4=CC(=O)CC[C@]4(C)[C@@]3(F)[C@@H](O)C[C@@]21C [FLUDROCORTISONE ACETATE],Not Active,Not Active,Not Active,Not Active,Not Active,Not Active,Not Active,Not Active,Not Active,–,–,–,–
CCOC(=O)c1ncn2c1CN(C)C(=O)c1cc(F)ccc1-2 [FLUMAZENIL],Not Active,Not Active,Not Active,Not Active,Not Active,Not Active,Not Active,Not Active,Not Active,–,–,–,–
CC(=O)OCC(=O)[C@@]12OC(C)(C)O[C@@H]1C[C@H]1[C@@H]3C[C@H](F)C4=CC(=O)C=C[C@]4(C)[C@@]3(F)[C@@H](O)C[C@@]12C [FLUOCINONIDE],Not Active,Not Active,Not Active,Not Active,Not Active,Not Active,Not Active,Not Active,Not Active,–,–,–,–
Cc1ccc(C)c(OCCCC(C)(C)C(=O)O)c1 [GEMFIBROZIL],Not Active,Not Active,Not Active,Not Active,Not Active,Not Active,Not Active,Not Active,Not Active,–,–,–,–
